Source: patent US8389523B2, “Substituted quinoxaline and an agrochemical composition thereof” (Kumiai Chemical Industry Co., Ltd., priority 2007, dated 2013)

Tests used:
Format in all cases: in vivo
Design in all cases: scale not given here
[1] = test system: Echinochloa crus-galli (L.) P. Beauv. var. crus-galli; assay: Herbicidal effects in upland field foliar treatment (Test Example 3); conditions: criteria of Table 138; for herbicidal effect (index) on Echinochloa crus-galli (L.) P. Beauv. var. crus-galli: 1000 g active ingredient per hectare, 14th day after treatment; for herbicidal effects on Echinochloa crus-galli (L.) P. Beauv. var. crus-galli: 1000 g of the active ingredient per hectare, 14th day after the treatment, wettable powder
Method in brief: (§1)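 Herbicidal activity is rated visually on a fixed scale 14 days after foliar application. Plants raised from seed in upland field soil for two weeks under glass receive a water dilution of a wettable powder at 1000 g a.i. per hectare in 1000 L/ha.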

Amaranthus viridis L. [2] = assay: as above; conditions: criteria of Table 138; for herbicidal effect (index) on Amaranthus viridis L.: 1000 g active ingredient per hectare, 14th day after treatment; for herbicidal effects on Amaranthus viridis L.: 1000 g of the active ingredient per hectare, 14th day after the treatment, wettable powder
Method in brief: as §1

[3] = test system: Abutilon theophrasti medicus; assay: as above; conditions: criteria of Table 138; for herbicidal effect (index) on Abutilon theophrasti medicus: 1000 g active ingredient per hectare, 14th day after treatment; for herbicidal effects on Abutilon theophrasti medicus: 1000 g of the active ingredient per hectare, 14th day after the treatment, wettable powder
Method in brief: as §1

Amaranthus viridis L. [4] = assay: Herbicidal effects in upland field soil treatment (Test Example 2); conditions: 1000 g active ingredient per hectare, 21st day after treatment, criteria of Table 138
Method in brief: (§2)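 Herbicidal effect was rated visually against set criteria on the 21st day after a pre-emergence soil-surface spray of diluted wettable powder delivering 1000 g active ingredient per hectare (1000 L/ha). Seeds had been sown and covered in upland field soil; plants grew in a greenhouse.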

[5] = test system: Abutilon theophrasti medicus; assay: as above; conditions: 1000 g active ingredient per hectare, 21st day after treatment, criteria of Table 138
Method in brief: as §2

[6] = test system: Scirpus juncoides Roxb. var. ohwianus. T. Koyama; assay: Herbicidal effects in paddy field soil treatment (Test Example 1); conditions: for Herbicidal effects index, Scirpus juncoides Roxb. var. ohwianus. T. Koyama: paddy field soil treatment, 1000 g of the active ingredient per hectare, wettable powder added dropwise on water surface, 21st day after treatment; for herbicidal effect (index) on Scirpus juncoides Roxb. var. ohwianus. T. Koyama: paddy field soil treatment (Test Example 1), criteria of Table 138
Method in brief: (§3)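 Scoring of herbicidal effect took place 21 days after treatment, using a rating scale, on plants grown in a greenhouse. The test compound, formulated as a wettable powder and diluted with water, had been applied dropwise to the flood water at 1000 g active ingredient per hectare, one day after sowing into puddled paddy soil held under 3 cm of water.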

[7] = test system: Echinochloa oryzicola Vasing; assay: as above; conditions: for Herbicidal effects index, Echinochloa oryzicola Vasing: paddy field soil treatment, 1000 g of the active ingredient per hectare, wettable powder added dropwise on water surface, 21st day after treatment; for herbicidal effect (index) on Echinochloa oryzicola Vasing: paddy field soil treatment (Test Example 1), criteria of Table 138
Method in brief: as §3

[8] = test system: Monochoria vaginalis (Burm. f.) Presl var. plantaginea (Roxb.) Solms-Laub.; assay: as above; conditions: for Herbicidal effects index, Monochoria vaginalis (Burm. f.) Presl var. plantaginea (Roxb.) Solms-Laub.: paddy field soil treatment, 1000 g of the active ingredient per hectare, wettable powder added dropwise on water surface, 21st day after treatment; for herbicidal effect (index) on Monochoria vaginalis (Burm. f.) Presl var. plantaginea (Roxb.) Solms-Laub.: paddy field soil treatment (Test Example 1), criteria of Table 138
Method in brief: as §3

Row | Structure (SMILES) | herbicidal effect (index) on Echinochloa crus-galli (L.) P. Beauv. var. crus-galli [1] | herbicidal effect (index) on Amaranthus viridis L. (Amaranthus viridis L. [2]) | herbicidal effect (index) on Abutilon theophrasti medicus [3] | herbicidal effect (index) on Amaranthus viridis L. (Amaranthus viridis L. [4]) | herbicidal effect (index) on Abutilon theophrasti medicus [5] | Herbicidal effects index, Scirpus juncoides Roxb. var. ohwianus. T. Koyama [6] | Herbicidal effects index, Echinochloa oryzicola Vasing [7] | Herbicidal effects index, Monochoria vaginalis (Burm. f.) Presl var. plantaginea (Roxb.) Solms-Laub. [8] | herbicidal effects on Echinochloa crus-galli (L.) P. Beauv. var. crus-galli [1] | herbicidal effects on Amaranthus viridis L. (Amaranthus viridis L. [2]) | herbicidal effects on Abutilon theophrasti medicus [3] | herbicidal effect (index) on Scirpus juncoides Roxb. var. ohwianus. T. Koyama [6] | herbicidal effect (index) on Echinochloa oryzicola Vasing [7] | herbicidal effect (index) on Monochoria vaginalis (Burm. f.) Presl var. plantaginea (Roxb.) Solms-Laub. [8]
1 | CCCCn1c(=O)c(C(=O)C2=C(O)CCCC2=O)nc2c(Cl)cccc21 [I-364] | 5 | 5 | 5 | 5 | 5 | 5 | 4 | 5 | – | – | – | – | – | –
2 | C#CCn1c(=O)c(C(=O)C2=C(O)CCCC2=O)nc2cccnc21 [III-35] | – | – | – | 5 | 5 | 5 | 4 | 5 | 4 | 5 | 5 | – | – | –
3 | O=C1CCCC(O)=C1C(=O)c1nc2ccccc2n(-c2ccc(Br)cn2)c1=O [I-271] | 5 | 5 | 5 | 5 | 5 | 5 | 5 | 5 | – | – | – | – | – | –
4 | COc1ccc(-n2c(=O)c(C(=O)C3=C(O)CCCC3=O)nc3ccccc32)cc1 [II-62] | – | – | – | 5 | 5 | 5 | 5 | 5 | 4 | 5 | 5 | – | – | –
5 | N#CCn1c(=O)c(C(=O)C2=C(O)CCCC2=O)nc2ccccc21 [Compound I-102] | 5 | 5 | 5 | 5 | 5 | 5 | 5 | 4 | – | – | – | – | – | –
6 | CC(C)Oc1ccc(-n2c(=O)c(C(=O)C3=C(O)CCCC3=O)nc3ccccc32)cc1 [II-75] | – | – | – | 5 | 4 | 5 | 5 | 5 | 5 | 5 | 4 | – | – | –
7 | O=C1CCCC(O)=C1C(=O)c1nc2ccccc2n(-c2ccc(C(F)(F)F)cc2)c1=O [II-44] | – | – | – | 5 | 5 | 5 | 5 | 5 | 5 | 5 | 5 | – | – | –
8 | N#CCCOCn1c(=O)c(C(=O)C2=C(O)CCCC2=O)nc2ccccc21 [I-68] | 4 | 5 | 5 | 5 | 5 | 5 | 4 | 5 | – | – | – | – | – | –
9 | COc1ccc(-n2c(=O)c(C(=O)C3=C(O)CCCC3=O)nc3c(F)cc(F)cc32)cn1 [I-283] | 4 | 5 | 5 | 5 | 5 | 5 | 4 | 5 | – | – | – | – | – | –
10 | Cc1cc(-n2c(=O)c(C(=O)C3=C(O)CCCC3=O)nc3cc(F)ccc32)no1 [I-281] | 5 | 5 | 5 | 5 | 5 | 5 | 5 | 5 | – | – | – | – | – | –
11 | O=C1CCCC(O)=C1C(=O)c1nc2cccnc2n(-c2ccc(OC(F)F)cc2)c1=O [IV-95] | – | – | – | 5 | 5 | – | – | – | 5 | 5 | 5 | 5 | 5 | 5
12 | O=C1CCCC(O)=C1C(=O)c1nc2cc(F)ccc2n(-c2ccccc2)c1=O [II-237] | – | – | – | 5 | 5 | 5 | 5 | 5 | 5 | 5 | 5 | – | – | –
13 | CC1(C)CC(=O)C(C(=O)c2nc3cccnc3n(-c3cccc(C(F)(F)F)c3)c2=O)=C(O)C1 [IV-41] | – | – | – | 5 | 5 | 5 | 5 | 5 | 5 | 5 | 5 | – | – | –
14 | COCn1c(=O)c(C(=O)C2=C(O)CCCC2=O)nc2ccccc21 [I-49] | 4 | 5 | 5 | 5 | 5 | 5 | 5 | 5 | – | – | – | – | – | –
15 | COc1ccc2nc(C(=O)C3=C(O)CCCC3=O)c(=O)n(-c3ccc(OC(F)F)cc3)c2c1 [II-305] | – | – | – | 5 | 5 | 5 | 5 | 5 | 5 | 5 | 5 | – | – | –
16 | Cc1cccc(-n2c(=O)c(C(=O)C3=C(O)CCCC3=O)nc3ccccc32)c1 [II-20] | – | – | – | 5 | 5 | 5 | 5 | 5 | 5 | 5 | 5 | – | – | –
17 | O=C1CCCC(O)=C1C(=O)c1nc2ccccc2n(-c2cccc(Cl)c2)c1=O [II-11] | 5 | 5 | 5 | 5 | 5 | 5 | 5 | 5 | – | – | – | – | – | –
18 | COc1ccc(-n2c(=O)c(C(=O)C3=C(O)CCCC3=O)nc3cccnc32)cc1 [IV-62, 2-(2-hydroxy-6-oxo-1-cyclohexenecarbonyl)-4-(4-methoxyphenyl)-pyrido[2,3-b]pyrazin-3(4H)-one] | – | – | – | 5 | 5 | – | – | – | 5 | 5 | 5 | 5 | 5 | 5
